Reference: publication PMC5097156, “Potent and selective chemical probe of hypoxic signalling downstream of HIF-α hydroxylation via VHL inhibition” (Nature Communications, 2016)

Columns and labels:
Test in all cases: biochemical
Set-up in all cases: Dundee MRC-PPU Express kinase screen, remaining kinase activity
Conditions in all cases: read-out: Mean % of remaining kinase activity (±sd)
SmMLCK = target: T1, SmMLCK (Homo sapiens, UniProt Q15746)
T1 construct: gene MYLK; smooth muscle

JNK1 = target: T2, JNK1 (Homo sapiens, UniProt P45983)
T2 construct: gene MAPK8

MSK1 = target: T3, MSK1 (Homo sapiens, UniProt O75582)
T3 construct: gene RPS6KA5

CHK2 = target: T4, CHK2 (Homo sapiens, UniProt O96017)
T4 construct: gene CHEK2

PKBa = target: T5, PKBa (Homo sapiens, UniProt P31749)
T5 construct: gene AKT1

BTK = BTK (Homo sapiens, UniProt Q06187)
Src = Src (Homo sapiens, UniProt P12931)
LKB1 = target: T6, LKB1 (Homo sapiens, UniProt Q15831)
T6 construct: gene STK11

CK1δ = target: T7, CK1δ (Homo sapiens, UniProt P48730)
T7 construct: gene CSNK1D

p38a MAPK = target: T8, p38a MAPK (Homo sapiens, UniProt Q16539)
T8 construct: gene MAPK14

CAMKKb = target: T9, CAMKKb (Homo sapiens, UniProt Q96RR4)
T9 construct: gene CAMKK2

SYK = SYK (Homo sapiens, UniProt P43405)
GSK3b = GSK3b (Homo sapiens, UniProt P49841)
PRK2 = target: T10, PRK2 (Homo sapiens, UniProt Q16513)
T10 construct: gene PKN2

MKK1 = target: T11, MKK1 (Homo sapiens, UniProt Q02750)
T11 construct: gene MAP2K1

MLK3 = target: T12, MLK3 (Homo sapiens, UniProt Q16584)
T12 construct: gene MAP3K11

TTK = TTK (Homo sapiens, UniProt P33981)
TrkA = target: T13, TrkA (Homo sapiens, UniProt P04629)
T13 construct: gene NTRK1

PIM1 = PIM1 (Homo sapiens, UniProt P11309)
SGK1 = SGK1 (Homo sapiens, UniProt O00141)
AMPK (hum) = target: T14, AMPK (hum) (Homo sapiens, UniProt Q13131)
T14 construct: gene PRKAA1

JAK3 = JAK3 (Homo sapiens, UniProt P52333)
IRAK4 = IRAK4 (Homo sapiens, UniProt Q9NWZ3)
TAK1 = target: T15, TAK1 (Homo sapiens, UniProt O43318)
T15 construct: gene MAP3K7

HIPK2 = HIPK2 (Homo sapiens, UniProt Q9H2X6)
CK2 = target: T16, CK2 (Homo sapiens, UniProt P68400)
T16 construct: gene CSNK2A1

NEK6 = NEK6 (Homo sapiens, UniProt Q9HC98)
PAK4 = PAK4 (Homo sapiens, UniProt O96013)
TBK1 = TBK1 (Homo sapiens, UniProt Q9UHD2)
Chain of TBK1 (Q9UHD2 whole entry): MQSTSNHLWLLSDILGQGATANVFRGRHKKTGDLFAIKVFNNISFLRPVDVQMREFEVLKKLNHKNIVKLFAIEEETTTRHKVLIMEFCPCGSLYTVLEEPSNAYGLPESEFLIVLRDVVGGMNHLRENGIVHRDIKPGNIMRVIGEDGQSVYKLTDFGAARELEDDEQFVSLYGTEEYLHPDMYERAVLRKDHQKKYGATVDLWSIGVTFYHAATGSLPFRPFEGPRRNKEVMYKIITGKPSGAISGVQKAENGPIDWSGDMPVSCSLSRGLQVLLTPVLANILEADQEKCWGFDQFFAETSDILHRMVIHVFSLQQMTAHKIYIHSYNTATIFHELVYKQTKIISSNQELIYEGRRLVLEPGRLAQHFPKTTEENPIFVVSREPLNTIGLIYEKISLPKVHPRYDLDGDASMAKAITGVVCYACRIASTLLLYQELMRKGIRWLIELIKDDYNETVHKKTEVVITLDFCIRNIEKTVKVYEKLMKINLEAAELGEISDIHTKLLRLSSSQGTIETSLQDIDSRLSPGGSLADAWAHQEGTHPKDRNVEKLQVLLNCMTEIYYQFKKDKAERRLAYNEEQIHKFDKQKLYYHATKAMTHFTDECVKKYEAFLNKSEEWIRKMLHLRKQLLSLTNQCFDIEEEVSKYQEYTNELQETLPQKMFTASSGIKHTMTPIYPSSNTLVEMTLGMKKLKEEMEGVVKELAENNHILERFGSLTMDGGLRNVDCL

T3 sequence (O75582 whole entry): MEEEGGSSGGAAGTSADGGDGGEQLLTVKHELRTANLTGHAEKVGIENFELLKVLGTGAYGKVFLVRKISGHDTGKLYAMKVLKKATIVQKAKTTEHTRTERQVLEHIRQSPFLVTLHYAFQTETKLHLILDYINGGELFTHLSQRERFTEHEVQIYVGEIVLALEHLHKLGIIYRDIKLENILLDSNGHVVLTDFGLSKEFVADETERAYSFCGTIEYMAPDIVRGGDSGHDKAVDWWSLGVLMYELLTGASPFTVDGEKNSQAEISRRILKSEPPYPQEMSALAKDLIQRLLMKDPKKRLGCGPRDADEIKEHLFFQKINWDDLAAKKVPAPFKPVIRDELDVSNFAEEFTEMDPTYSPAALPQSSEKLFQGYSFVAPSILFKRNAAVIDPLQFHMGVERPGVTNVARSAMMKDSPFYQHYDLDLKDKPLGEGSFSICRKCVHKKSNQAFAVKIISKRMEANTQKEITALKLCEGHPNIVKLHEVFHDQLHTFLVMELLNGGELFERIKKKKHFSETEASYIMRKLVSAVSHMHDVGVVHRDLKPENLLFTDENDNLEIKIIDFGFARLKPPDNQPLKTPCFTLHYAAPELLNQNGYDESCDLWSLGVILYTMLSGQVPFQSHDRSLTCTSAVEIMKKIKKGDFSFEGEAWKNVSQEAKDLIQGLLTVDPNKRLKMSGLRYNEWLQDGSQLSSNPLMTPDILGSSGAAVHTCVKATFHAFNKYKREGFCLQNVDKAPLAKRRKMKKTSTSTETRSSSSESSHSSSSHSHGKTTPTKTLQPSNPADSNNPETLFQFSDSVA
T7 sequence (P48730 whole entry): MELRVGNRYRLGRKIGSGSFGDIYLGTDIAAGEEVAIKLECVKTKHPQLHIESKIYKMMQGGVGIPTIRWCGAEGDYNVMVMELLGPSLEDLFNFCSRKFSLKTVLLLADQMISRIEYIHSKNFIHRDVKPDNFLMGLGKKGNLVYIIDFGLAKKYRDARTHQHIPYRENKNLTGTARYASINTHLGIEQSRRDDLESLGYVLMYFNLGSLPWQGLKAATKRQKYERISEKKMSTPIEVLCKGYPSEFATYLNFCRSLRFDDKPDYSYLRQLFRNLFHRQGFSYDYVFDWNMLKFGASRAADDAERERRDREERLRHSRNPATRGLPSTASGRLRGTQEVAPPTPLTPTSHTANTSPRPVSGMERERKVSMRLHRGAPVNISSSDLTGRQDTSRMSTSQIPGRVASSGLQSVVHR
Chain of JAK3 (P52333 whole entry): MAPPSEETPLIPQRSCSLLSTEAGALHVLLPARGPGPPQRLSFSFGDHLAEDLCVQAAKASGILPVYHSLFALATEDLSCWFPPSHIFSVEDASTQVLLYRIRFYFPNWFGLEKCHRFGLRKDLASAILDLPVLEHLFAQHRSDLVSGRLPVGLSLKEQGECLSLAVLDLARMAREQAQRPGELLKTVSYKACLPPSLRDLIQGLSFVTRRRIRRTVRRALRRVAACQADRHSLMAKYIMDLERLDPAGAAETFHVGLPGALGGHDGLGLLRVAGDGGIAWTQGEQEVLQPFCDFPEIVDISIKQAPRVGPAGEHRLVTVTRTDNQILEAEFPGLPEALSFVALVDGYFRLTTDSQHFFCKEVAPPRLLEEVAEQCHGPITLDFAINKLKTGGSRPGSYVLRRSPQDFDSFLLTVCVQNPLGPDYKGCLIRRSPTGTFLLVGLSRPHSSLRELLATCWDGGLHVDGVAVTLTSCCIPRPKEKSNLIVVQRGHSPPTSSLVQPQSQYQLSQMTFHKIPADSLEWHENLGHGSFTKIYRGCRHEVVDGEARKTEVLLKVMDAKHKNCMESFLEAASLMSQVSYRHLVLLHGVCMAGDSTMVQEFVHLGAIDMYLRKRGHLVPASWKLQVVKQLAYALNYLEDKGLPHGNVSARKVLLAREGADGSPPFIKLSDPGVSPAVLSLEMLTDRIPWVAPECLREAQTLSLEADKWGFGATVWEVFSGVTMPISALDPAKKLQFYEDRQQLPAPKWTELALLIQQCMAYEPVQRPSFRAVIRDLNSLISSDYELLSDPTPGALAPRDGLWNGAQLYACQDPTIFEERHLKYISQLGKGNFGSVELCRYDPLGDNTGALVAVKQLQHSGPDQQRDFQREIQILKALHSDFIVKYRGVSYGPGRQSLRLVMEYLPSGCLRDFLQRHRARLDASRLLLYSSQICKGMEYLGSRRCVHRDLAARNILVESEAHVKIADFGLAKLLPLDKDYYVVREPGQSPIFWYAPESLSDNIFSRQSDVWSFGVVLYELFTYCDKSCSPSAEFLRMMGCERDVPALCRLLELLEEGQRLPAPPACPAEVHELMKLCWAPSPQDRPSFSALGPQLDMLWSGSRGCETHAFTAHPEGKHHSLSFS
T15 sequence (O43318 whole entry): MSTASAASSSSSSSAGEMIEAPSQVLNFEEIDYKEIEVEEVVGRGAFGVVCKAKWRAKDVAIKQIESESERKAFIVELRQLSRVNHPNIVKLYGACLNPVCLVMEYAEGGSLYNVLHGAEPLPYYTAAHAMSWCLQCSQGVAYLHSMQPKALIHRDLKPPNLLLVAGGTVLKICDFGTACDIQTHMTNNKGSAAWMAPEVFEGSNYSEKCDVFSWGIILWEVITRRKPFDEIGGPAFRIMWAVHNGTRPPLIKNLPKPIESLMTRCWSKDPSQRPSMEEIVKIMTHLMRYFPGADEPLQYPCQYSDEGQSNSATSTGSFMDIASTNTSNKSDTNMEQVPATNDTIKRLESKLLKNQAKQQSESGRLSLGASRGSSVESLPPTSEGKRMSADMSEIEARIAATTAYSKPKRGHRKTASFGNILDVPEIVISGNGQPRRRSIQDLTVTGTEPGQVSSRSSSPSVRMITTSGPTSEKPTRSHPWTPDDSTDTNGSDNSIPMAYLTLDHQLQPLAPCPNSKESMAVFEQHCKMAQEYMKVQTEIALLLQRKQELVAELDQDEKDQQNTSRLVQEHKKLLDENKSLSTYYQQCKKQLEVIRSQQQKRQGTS
Chain of GSK3b (P49841 whole entry): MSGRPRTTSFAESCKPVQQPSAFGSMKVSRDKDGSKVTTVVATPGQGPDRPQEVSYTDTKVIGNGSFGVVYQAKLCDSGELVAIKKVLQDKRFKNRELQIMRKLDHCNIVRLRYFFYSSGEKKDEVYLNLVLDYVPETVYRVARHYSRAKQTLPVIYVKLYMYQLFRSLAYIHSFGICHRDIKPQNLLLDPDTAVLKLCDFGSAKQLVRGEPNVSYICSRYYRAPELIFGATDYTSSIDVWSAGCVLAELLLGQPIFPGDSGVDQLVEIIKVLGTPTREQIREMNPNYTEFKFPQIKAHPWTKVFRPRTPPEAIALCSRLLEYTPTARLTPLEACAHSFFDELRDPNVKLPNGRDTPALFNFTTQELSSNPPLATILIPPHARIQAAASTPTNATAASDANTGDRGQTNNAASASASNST
T16 sequence (P68400 whole entry): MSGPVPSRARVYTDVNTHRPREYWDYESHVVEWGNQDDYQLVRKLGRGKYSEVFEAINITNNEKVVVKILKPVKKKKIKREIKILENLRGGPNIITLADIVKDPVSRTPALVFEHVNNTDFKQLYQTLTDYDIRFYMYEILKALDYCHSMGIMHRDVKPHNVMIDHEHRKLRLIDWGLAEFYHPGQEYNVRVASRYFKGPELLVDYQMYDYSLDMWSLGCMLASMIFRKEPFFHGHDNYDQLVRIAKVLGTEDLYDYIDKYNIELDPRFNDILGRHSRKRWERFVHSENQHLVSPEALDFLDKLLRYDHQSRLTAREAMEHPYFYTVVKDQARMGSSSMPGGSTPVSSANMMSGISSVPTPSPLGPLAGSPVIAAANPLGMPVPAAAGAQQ
T16 sequence (P67870 whole entry partner): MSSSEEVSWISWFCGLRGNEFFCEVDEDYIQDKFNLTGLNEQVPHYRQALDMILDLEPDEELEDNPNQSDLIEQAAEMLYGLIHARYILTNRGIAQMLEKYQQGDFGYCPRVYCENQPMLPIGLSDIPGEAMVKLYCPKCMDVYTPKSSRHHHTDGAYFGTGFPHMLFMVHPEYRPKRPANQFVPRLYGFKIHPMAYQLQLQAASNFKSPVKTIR
Chain of PIM1 (P11309 whole entry): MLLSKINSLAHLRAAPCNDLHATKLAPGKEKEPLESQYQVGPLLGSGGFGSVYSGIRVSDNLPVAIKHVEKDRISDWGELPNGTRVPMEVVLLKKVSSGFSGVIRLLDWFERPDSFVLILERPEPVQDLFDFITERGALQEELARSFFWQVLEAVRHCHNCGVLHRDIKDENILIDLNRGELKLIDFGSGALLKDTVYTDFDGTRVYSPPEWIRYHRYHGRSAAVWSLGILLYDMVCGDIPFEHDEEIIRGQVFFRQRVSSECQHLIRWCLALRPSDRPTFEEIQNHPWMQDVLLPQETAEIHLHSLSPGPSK

In the case of `Cc1ncsc1-c1ccc(CNC(=O)[C@@H]2C[C@@H](O)CN2C(=O)[C@@H](NC(=O)C2(C#N)CC2)C(C)(C)C)cc1` [VH298], the remaining activity at 50 µM (SmMLCK) is reported as 105%, the remaining activity at 50 µM (JNK1) is reported as 119% and the remaining activity at 50 µM (MSK1) is reported as 87%. The remaining activity at 50 µM (CHK2) was 93%, the remaining activity at 50 µM (PKBa) was 54% and the remaining activity at 50 µM (BTK) was 102%. It also gave a remaining activity at 50 µM (Src) of 112%, a remaining activity at 50 µM (LKB1) of 105% and a remaining activity at 50 µM (CK1δ) of 99%. For the same compound, the remaining activity at 50 µM (p38a MAPK) was 108%, the remaining activity at 50 µM (CAMKKb) was 101% and the remaining activity at 50 µM (SYK) was 103%. The remaining activity at 50 µM (GSK3b) was 107%, the remaining activity at 50 µM (PRK2) was 110% and the remaining activity at 50 µM (MKK1) was 85%. For the same compound, the remaining activity at 50 µM (MLK3) was 95%, the remaining activity at 50 µM (TTK) was 97% and the remaining activity at 50 µM (TrkA) was 100%. For the same compound, the remaining activity at 50 µM (PIM1) was 92%, the remaining activity at 50 µM (SGK1) was 83% and the remaining activity at 50 µM (AMPK (hum)) was 101%. For the same compound, the remaining activity at 50 µM (JAK3) was 99%, the remaining activity at 50 µM (IRAK4) was 112% and the remaining activity at 50 µM (TAK1) was 111%. It also gave a remaining activity at 50 µM (HIPK2) of 100%, a remaining activity at 50 µM (CK2) of 116% and a remaining activity at 50 µM (NEK6) of 106%. For the same compound, the remaining activity at 50 µM (PAK4) was 97% and the remaining activity at 50 µM (TBK1) was 110%.
